Several values for one entry are separate records, joined by “and”; a condition that tells them apart may be missing. Equal values may be shown once.
Settings: Calculated from knudsen effusion weight loss

O=[Si] [silicon monooxide]
Crystal
Settings	vapor or sublimation pressure [kPa]
1211 K	3e-06
1229 K	1.6e-06
1249 K	8e-06
1267 K	1.3e-05
1281 K	2.2e-05
1300 K	4e-05
1314 K	6e-05
1329 K	9e-05
1343 K	0.00013
1356 K	0.0002
1370 K	0.00028
1384 K	0.0004
1397 K	0.0005
1409 K	0.0007
1421 K	0.001
1432 K	0.0013
1443 K	0.0017
1454 K	0.0023
1463 K	0.0029
1474 K	0.0036
1484 K	0.005
1494 K	0.006
1503 K	0.007
1512 K	0.009
1522 K	0.011
1530 K	0.013
1539 K	0.015
1547 K	0.018
1555 K	0.021
1565 K	0.024

[Cu] [copper]
Settings	vapor or sublimation pressure
1211 K, Crystal	3.2e-06 kPa
1229 K, Crystal	2.6e-06 kPa
1249 K, Crystal	6.5e-06 kPa and 5.9e-06 kPa
1267 K, Crystal	1e-05 kPa
1281 K, Crystal	1.4e-05 kPa and 1.5e-05 kPa
1300 K, Crystal	2.1e-05 kPa and 1.9e-05 kPa
1314 K, Crystal	2.8e-05 kPa and 2.7e-05 kPa
1329 K, Crystal	4.5e-05 kPa and 3.8e-05 kPa
1343 K, Crystal	5.4e-05 kPa and 5.1e-05 kPa
1356 K, Crystal	7e-05 kPa
1370 K, Liquid	9e-05 kPa
1379 K, Liquid	0.00013 kPa
1384 K, Liquid	0.00012 kPa
1388 K, Liquid	0.00014 kPa
1397 K, Liquid	0.00015 kPa
1409 K, Liquid	0.00018 kPa and 0.00019 kPa
1421 K, Liquid	0.00023 kPa
1432 K, Liquid	0.00027 kPa and 0.00028 kPa
1434 K, Liquid	0.00033 kPa
1443 K, Liquid	0.00034 kPa
1454 K, Liquid	0.0004 kPa and 0.00041 kPa
1463 K, Liquid	0.00047 kPa and 0.00049 kPa
1474 K, Liquid	0.00055 kPa and 0.00057 kPa
1484 K, Liquid	0.00065 kPa and 0.0007 kPa
1494 K, Liquid	0.0007 kPa and 0.0008 kPa
1503 K, Liquid	0.0008 kPa and 0.0009 kPa
1512 K, Liquid	0.0008 kPa and 0.0011 kPa
1522 K, Liquid	0.0013 kPa and 0.0012 kPa
1530 K, Liquid	0.0015 kPa and 0.0014 kPa
1539 K, Liquid	0.0016 kPa
1547 K, Liquid	0.0018 kPa and 0.0019 kPa
1555 K, Liquid	0.0021 kPa
1565 K, Liquid	0.0023 kPa and 0.0024 kPa and 0.0027 kPa
1572 K, Liquid	0.0026 kPa and 0.0028 kPa and 0.0031 kPa
1581 K, Liquid	0.0029 kPa and 0.0031 kPa and 0.0035 kPa
1588 K, Liquid	0.0031 kPa and 0.0036 kPa and 0.004 kPa
1596 K, Liquid	0.0038 kPa and 0.0041 kPa and 0.0045 kPa
1604 K, Liquid	0.0039 kPa and 0.0046 kPa and 0.005 kPa
1611 K, Liquid	0.0042 kPa and 0.0052 kPa and 0.0055 kPa
1619 K, Liquid	0.0046 kPa and 0.0058 kPa and 0.006 kPa
1628 K, Liquid	0.005 kPa and 0.0066 kPa

From the NIST ThermoML archive (doi:10.1021/je300199a)
